The test system of one test is Bacillus thuringiensis. Description: Antibacterial activity against Bacillus thuringiensis SCSIO BT01 assessed as reduction in bacterial growth after 16 hrs by broth microdilution method. It counts as functional.
A further test relates to MCF7. Put plainly: Cytotoxicity against human MCF7 cells assessed as reduction in cell viability after 72 hrs by SRB assay. It counts as functional, cell-based. The conditions noted are these: MCF7, 72 h.
Another test relates to Bacillus subtilis. Description: Antibacterial activity against […] 1064 assessed as reduction in bacterial growth after 16 hrs by broth microdilution method. It counts as functional. Background: Dilution methods test growth across graded concentrations, often in twofold steps.
For the next test, the system named is HepG2. Put plainly: Cytotoxicity against human HepG2 cells assessed as reduction in cell viability after 72 hrs by SRB assay. The note with it: HepG2, 72 h. It counts as functional, cell-based. For orientation: Sulforhodamine B stains cellular protein and so reports cell mass.
In the next test the test system is Micrococcus luteus. Description: Antibacterial activity against Micrococcus luteus SCSIO ML01 assessed as reduction in bacterial growth after 16 hrs by broth microdilution method. It counts as functional.
For test [1], the system named is Staphylococcus aureus. Put plainly: Antibacterial activity against Staphylococcus aureus ATCC 29213 assessed as reduction in bacterial growth after 16 hrs by broth microdilution method. It counts as functional.
Another test deals with SF-268. Put plainly: Cytotoxicity against human SF-268 cells assessed as reduction in cell viability after 72 hrs by SRB assay. It counts as functional, cell-based. The conditions noted are these: SF-268, 72 h.
For test [2], the system named is Staphylococcus aureus. Description: Antibacterial activity against methicillin-resistant Staphylococcus aureus shhs-A1 assessed as reduction in bacterial growth after 16 hrs by broth microdilution method. It counts as functional.

In brackets after ≈: the same amount, converted by molar mass.

By MIC is commonly meant the lowest concentration found to suppress growth. One may read the IC50 as the concentration at which inhibition is half-maximal. Consider `CCc1cc(O)c2c(c1)C(SC[C@H](NC(C)=O)C(=O)O)=C1C(=O)c3c(O)cccc3C(O)=C12`, for which the MIC in the test with Bacillus thuringiensis, in the test on Bacillus subtilis, in the test on Micrococcus luteus, with Staphylococcus aureus [1] and in the test with Staphylococcus aureus [2] was above 64 µg/mL in each case. Besides, the IC50 in the test with MCF7, in the test with HepG2 and in the test on SF-268 was above 100 µM throughout.

For the compound `CC[C@]12CC(=O)[C@@]3(O)[C@](O)(CC(O)=C4C(=O)c5c(O)cccc5C(=O)[C@@]43S1)C2`, the MIC with Bacillus thuringiensis, in the test on Bacillus subtilis, in the test on Micrococcus luteus, in the test on Staphylococcus aureus [1] and in the test on Staphylococcus aureus [2] was above 64 µg/mL in each case. In addition, the IC50 in the test with MCF7, in the test on HepG2 and in the test with SF-268 was above 100 µM throughout.

As to `CCc1cc(O)c2c3c(ncc2c1)C(=O)c1c(O)cccc1C3=O`, the MIC in the test with Bacillus thuringiensis was 4 µg/mL (≈ 12.5 µM); in the test with Bacillus subtilis it was 4 µg/mL (≈ 12.5 µM); in the test on Micrococcus luteus, 4 µg/mL (≈ 12.5 µM); with Staphylococcus aureus [1] it was 2 µg/mL (≈ 6.26 µM); in the test on Staphylococcus aureus [2] it was 2 µg/mL (≈ 6.26 µM). Besides, the IC50 with MCF7 is 6.8 µM; with HepG2 it was 1.4 µM; with SF-268, 5.4 µM.

Take `CCc1cc(O)c2c3c(c(O)cc2c1)C(=O)c1c(O)cccc1C3=O`: the MIC in the test with Bacillus thuringiensis was above 64 µg/mL; in the test with Bacillus subtilis, above 64 µg/mL; in the test with Micrococcus luteus, 8 µg/mL (≈ 23.9 µM); with Staphylococcus aureus [1], 4 µg/mL (≈ 12 µM); in the test with Staphylococcus aureus [2], above 64 µg/mL. Also, the results for the IC50 in the test with MCF7, with HepG2 and in the test on SF-268 were 14.9 µM, 25.3 µM and 16.9 µM, respectively.

With `CCc1cc(O)c(C2=C(O)C(=O)c3c(O)cccc3C2=O)c(C(=O)OC)c1`, the MIC with Bacillus thuringiensis, in the test with Bacillus subtilis, in the test with Micrococcus luteus, with Staphylococcus aureus [1] and in the test with Staphylococcus aureus [2] was above 64 µg/mL throughout. Besides, the IC50 with MCF7, in the test on HepG2 and with SF-268 was above 100 µM in each case.

On to `CCc1cc(O)c2c3c([nH]c(=O)c2c1)C(=O)c1c(O)cccc1C3=O`, for which the MIC is above 64 µg/mL in the test on Bacillus thuringiensis; above 64 µg/mL in the test with Bacillus subtilis; above 64 µg/mL with Micrococcus luteus; 64 µg/mL (≈ 191 µM) in the test on Staphylococcus aureus [1]; 64 µg/mL (≈ 191 µM) in the test on Staphylococcus aureus [2]. Moreover, the figures for the IC50 with MCF7, in the test with HepG2 and with SF-268 were 52 µM, 4 µM and 18 µM, respectively.

Take `CC[C@]1(O)CC(=O)c2c(cc(O)c3c2C(=O)c2cccc(O)c2C3=O)C1`: the MIC in the test with Bacillus thuringiensis, in the test with Bacillus subtilis, in the test on Micrococcus luteus, in the test on Staphylococcus aureus [1] and in the test with Staphylococcus aureus [2] was above 64 µg/mL in each case. In addition, the IC50 in the test with MCF7 is 12.5 µM; in the test on HepG2, 10.3 µM; in the test with SF-268, 9 µM.

For `CCc1cc(O)c2c(c1C(C)=O)C(=O)c1cccc(O)c1C2=O`, the MIC in the test with Bacillus thuringiensis, in the test with Bacillus subtilis, in the test on Micrococcus luteus, with Staphylococcus aureus [1] and in the test with Staphylococcus aureus [2] was above 64 µg/mL in each case. The IC50 turned out to be 10.4 µM in the test on MCF7, 8.1 µM in the test with HepG2 and 7.6 µM in the test on SF-268.

For `CCc1cc(C(=O)O)c2c3c(oc2c1)C(=O)c1c(O)cccc1C3=O`, the MIC with Bacillus thuringiensis, with Bacillus subtilis, in the test on Micrococcus luteus, with Staphylococcus aureus [1] and in the test on Staphylococcus aureus [2] was above 64 µg/mL each time. The 50% inhibitory concentration (IC50) in the test on MCF7, in the test on HepG2 and in the test on SF-268 was above 100 µM each time.

`Cc1cn([C@H]2C[C@H](O)[C@@H](COP(=O)(O)O)O2)c(=O)[nH]c1=O` [THYMIDINE MONOPHOSPHATE]: the MIC with Bacillus thuringiensis is 0.5 µg/mL; in the test with Bacillus subtilis, 0.5 µg/mL; in the test on Micrococcus luteus, 0.5 µg/mL; in the test with Staphylococcus aureus [1] it was 2 µg/mL; in the test on Staphylococcus aureus [2], 2 µg/mL.

Regarding `CCc1cc(O)c2c(c1)C(N)=C1C(=O)c3c(O)cccc3C(=O)C12CC(C)=O` (racemic), the MIC with Bacillus thuringiensis, in the test with Bacillus subtilis, with Micrococcus luteus, in the test on Staphylococcus aureus [1] and in the test with Staphylococcus aureus [2] was above 64 µg/mL in each case. In addition, the IC50 in the test on MCF7, in the test with HepG2 and in the test on SF-268 was above 100 µM each time.

These data come from ChEMBL document CHEMBL4699516, “S-Bridged Thioether and Structure-Diversified Angucyclinone Derivatives from the South China Sea-Derived Micromonospora echinospora SCSIO 04089” (J Nat Prod, 2020).
